Reference: US20250186405A1, “Compound For Use In Treating Narcolepsy” (Alkermes, Inc., priority 2023, published 2025)

Tested on: subjects with idiopathic hypersomnia (IH)
Experiment: Part 6 POC IH: treatment-emergent adverse events, single doses, crossover
Conditions: N = 8
Procedure: Part 6 consisted of a 4-way, 4-period crossover study design in approximately 8 subjects (2 subjects per sequence; minimum of 4 subjects with 1 subject per sequence). […] Treatments were administered under fasted state.
Subjects were randomized to 1 of 4 sequences. […] No food was given for at least 3 hours after dose administration (i.e., fast can be broken after the 3-hour PK time point is collected). Water was allowed ad libitum except for 1 hour before and 1 hour after study drug administration. Safety assessments including AEs, safety ECGs, vital signs, and clinical laboratory tests were conducted, and plasma PK samples were collected.
Adverse events (AEs) and serious adverse events (SAEs) were monitored continuously until the completion of the study.
Eight subjects with IH were dosed in Part 6 (POC in IH) in a randomized 4-sequence 4-period cross-over design.

Structure (SMILES): CS(=O)(=O)N[C@H]1CCCN2C(=O)COc3ccccc3C3CCC(CC3)OCC12 (stereo partly drawn) [Compound A, N-[(4S,4aR,7α,10α)-1,2,3,4,4a,5,7,8,9,10,16,17-dodecahydro-17-oxo-7,10-ethanopyrido[1,2-d][1,7,4]benzodioxaazacyclotridecin-4-yl]methanesulfonamide]
- AE Leading to Study Drug Discontinuation (5 mg single dose): 0 n (%)
- Any SAEs (5 mg single dose): 0 n (%)
- Any TEAE (5 mg single dose): 6 (75.0) n (%)
- Death (5 mg single dose): 0 n (%)
- Drug Related TEAE by Preferred Term: Cold sweat (5 mg single dose): 0 n (%)
- Drug Related TEAE by Preferred Term: Dizziness (5 mg single dose): 0 n (%)
- Drug Related TEAE by Preferred Term: Dysuria (5 mg single dose): 0 n (%)
- Drug Related TEAE by Preferred Term: Feeling jittery (5 mg single dose): 0 n (%)
- Drug Related TEAE by Preferred Term: Insomnia (5 mg single dose): 0 n (%)
- Drug Related TEAE by Preferred Term: Micturition urgency (5 mg single dose): 1 (12.5) n (%)
- Drug Related TEAE by Preferred Term: Middle insomnia (5 mg single dose): 1 (12.5) n (%)
- Drug Related TEAE by Preferred Term: Palpitations (5 mg single dose): 0 n (%)
- Drug Related TEAE by Preferred Term: Pollakiuria (5 mg single dose): 2 (25.0) n (%)
- Drug Related TEAE by Preferred Term: Supraventricular extrasystoles (5 mg single dose): 0 n (%)
- Drug Related TEAE by Preferred Term: Tachycardia (5 mg single dose): 0 n (%)
- Drug Related TEAE by Preferred Term: Visual impairment (5 mg single dose): 0 n (%)
- Subjects with at least one TEAE (5 mg single dose): 6 (75.0) n (%)
- Subjects with at least one treatment-related TEAE (5 mg single dose): 2 (25.0) n (%)
- TEAE by Highest Relationship: Not Related (5 mg single dose): 4 (50.0) n (%)
- TEAE by Highest Relationship: Related (5 mg single dose): 2 (25.0) n (%)
- TEAE by Highest Severity: Mild (5 mg single dose): 6 (75.0) n (%)
- TEAE by Highest Severity: Moderate (5 mg single dose): 0 n (%)
- TEAE by Highest Severity: Severe (5 mg single dose): 0 n (%)
- TEAE by Preferred Term: Blood creatine phosphokinase increased (5 mg single dose): 0 n (%)
- TEAE by Preferred Term: Blood creatinine increased (5 mg single dose): 0 n (%)
- TEAE by Preferred Term: Cold sweat (5 mg single dose): 0 n (%)
- TEAE by Preferred Term: Dermatitis contact (5 mg single dose): 0 n (%)
- TEAE by Preferred Term: Dizziness (5 mg single dose): 2 (25.0) n (%)
- TEAE by Preferred Term: Dysuria (5 mg single dose): 0 n (%)
- TEAE by Preferred Term: Epistaxis (5 mg single dose): 0 n (%)
- TEAE by Preferred Term: Feeling jittery (5 mg single dose): 0 n (%)
- TEAE by Preferred Term: Headache (5 mg single dose): 1 (12.5) n (%)
- TEAE by Preferred Term: Insomnia (5 mg single dose): 0 n (%)
- TEAE by Preferred Term: Micturition urgency (5 mg single dose): 1 (12.5) n (%)
- TEAE by Preferred Term: Middle insomnia (5 mg single dose): 1 (12.5) n (%)
- TEAE by Preferred Term: Nausea (5 mg single dose): 1 (12.5) n (%)
- TEAE by Preferred Term: Neck pain (5 mg single dose): 1 (12.5) n (%)
- TEAE by Preferred Term: Palpitations (5 mg single dose): 0 n (%)
- TEAE by Preferred Term: Phlebitis (5 mg single dose): 0 n (%)
- TEAE by Preferred Term: Pollakiuria (5 mg single dose): 2 (25.0) n (%)
- TEAE by Preferred Term: Presyncope (5 mg single dose): 0 n (%)
- TEAE by Preferred Term: Skin irritation (5 mg single dose): 1 (12.5) n (%)
- TEAE by Preferred Term: Steatorrhoea (5 mg single dose): 0 n (%)
- TEAE by Preferred Term: Supraventricular extrasystoles (5 mg single dose): 0 n (%)
- TEAE by Preferred Term: Tachycardia (5 mg single dose): 0 n (%)
- TEAE by Preferred Term: Urinary tract infection (5 mg single dose): 1 (12.5) n (%)
- TEAE by Preferred Term: Vessel puncture site bruise (5 mg single dose): 2 (25.0) n (%)
- TEAE by Preferred Term: Vessel puncture site pain (5 mg single dose): 0 n (%)
- TEAE by Preferred Term: Visual impairment (5 mg single dose): 0 n (%)
- TEAE by Preferred Term: Vomiting (5 mg single dose): 0 n (%)
- AE Leading to Study Drug Discontinuation (12 mg single dose): 0 n (%)
- Any SAEs (12 mg single dose): 0 n (%)
- Any TEAE (12 mg single dose): 5 (62.5) n (%)
- Death (12 mg single dose): 0 n (%)
- Drug Related TEAE by Preferred Term: Cold sweat (12 mg single dose): 0 n (%)
- Drug Related TEAE by Preferred Term: Dizziness (12 mg single dose): 0 n (%)
- Drug Related TEAE by Preferred Term: Dysuria (12 mg single dose): 1 (12.5) n (%)
- Drug Related TEAE by Preferred Term: Feeling jittery (12 mg single dose): 0 n (%)
- Drug Related TEAE by Preferred Term: Insomnia (12 mg single dose): 0 n (%)
- Drug Related TEAE by Preferred Term: Micturition urgency (12 mg single dose): 0 n (%)
- Drug Related TEAE by Preferred Term: Middle insomnia (12 mg single dose): 1 (12.5) n (%)
- Drug Related TEAE by Preferred Term: Palpitations (12 mg single dose): 0 n (%)
- Drug Related TEAE by Preferred Term: Pollakiuria (12 mg single dose): 2 (25.0) n (%)
- Drug Related TEAE by Preferred Term: Supraventricular extrasystoles (12 mg single dose): 0 n (%)
- Drug Related TEAE by Preferred Term: Tachycardia (12 mg single dose): 0 n (%)
- Drug Related TEAE by Preferred Term: Visual impairment (12 mg single dose): 0 n (%)
- Subjects with at least one TEAE (12 mg single dose): 5 (62.5) n (%)
- Subjects with at least one treatment-related TEAE (12 mg single dose): 3 (37.5) n (%)
- TEAE by Highest Relationship: Not Related (12 mg single dose): 2 (25.0) n (%)
- TEAE by Highest Relationship: Related (12 mg single dose): 3 (37.5) n (%)
- TEAE by Highest Severity: Mild (12 mg single dose): 5 (62.5) n (%)
- TEAE by Highest Severity: Moderate (12 mg single dose): 0 n (%)
- TEAE by Highest Severity: Severe (12 mg single dose): 0 n (%)
- TEAE by Preferred Term: Blood creatine phosphokinase increased (12 mg single dose): 1 (12.5) n (%)
- TEAE by Preferred Term: Blood creatinine increased (12 mg single dose): 1 (12.5) n (%)
- TEAE by Preferred Term: Cold sweat (12 mg single dose): 0 n (%)
- TEAE by Preferred Term: Dermatitis contact (12 mg single dose): 0 n (%)
- TEAE by Preferred Term: Dizziness (12 mg single dose): 0 n (%)
- TEAE by Preferred Term: Dysuria (12 mg single dose): 1 (12.5) n (%)
- TEAE by Preferred Term: Epistaxis (12 mg single dose): 0 n (%)
- TEAE by Preferred Term: Feeling jittery (12 mg single dose): 0 n (%)
- TEAE by Preferred Term: Headache (12 mg single dose): 1 (12.5) n (%)
- TEAE by Preferred Term: Insomnia (12 mg single dose): 0 n (%)
- TEAE by Preferred Term: Micturition urgency (12 mg single dose): 0 n (%)
- TEAE by Preferred Term: Middle insomnia (12 mg single dose): 1 (12.5) n (%)
- TEAE by Preferred Term: Nausea (12 mg single dose): 1 (12.5) n (%)
- TEAE by Preferred Term: Neck pain (12 mg single dose): 0 n (%)
- TEAE by Preferred Term: Palpitations (12 mg single dose): 0 n (%)
- TEAE by Preferred Term: Phlebitis (12 mg single dose): 1 (12.5) n (%)
- TEAE by Preferred Term: Pollakiuria (12 mg single dose): 2 (25.0) n (%)
- TEAE by Preferred Term: Presyncope (12 mg single dose): 1 (12.5) n (%)
- TEAE by Preferred Term: Skin irritation (12 mg single dose): 0 n (%)
- TEAE by Preferred Term: Steatorrhoea (12 mg single dose): 1 (12.5) n (%)
- TEAE by Preferred Term: Supraventricular extrasystoles (12 mg single dose): 0 n (%)
- TEAE by Preferred Term: Tachycardia (12 mg single dose): 0 n (%)
- TEAE by Preferred Term: Urinary tract infection (12 mg single dose): 0 n (%)
- TEAE by Preferred Term: Vessel puncture site bruise (12 mg single dose): 0 n (%)
- TEAE by Preferred Term: Vessel puncture site pain (12 mg single dose): 0 n (%)
- TEAE by Preferred Term: Visual impairment (12 mg single dose): 0 n (%)
- TEAE by Preferred Term: Vomiting (12 mg single dose): 0 n (%)
- AE Leading to Study Drug Discontinuation (25 mg single dose): 0 n (%)
